Reference: paper doi:10.1101/2021.04.08.439011v1 (biorxiv, 2021)

Tests used:
Settings in all cases: 0.1 µM; binder
BRK = BRK (Homo sapiens, UniProt Q13882)
STK4 = STK4 (Homo sapiens, UniProt Q13043)
LATS2 = LATS2 (Homo sapiens, UniProt Q9NRM7)
RIOK3 = RIOK3 (Homo sapiens, UniProt O14730)
SGK2 = SGK2 (Homo sapiens, UniProt Q9HBY8)
WNK4 = WNK4 (Homo sapiens, UniProt Q96J92)
FAK = FAK (Homo sapiens, UniProt Q05397)
ULK3 = ULK3 (Homo sapiens, UniProt Q6PHR2)
MST2 = MST2 (Homo sapiens, UniProt Q13188)
DCAMKL1 = DCAMKL1 (Homo sapiens, UniProt O15075)
EIF2AK1 = EIF2AK1 (Homo sapiens, UniProt Q9BQI3)
EPHA7 = EPHA7 (Homo sapiens, UniProt Q15375)
AXL = AXL (Homo sapiens, UniProt P30530)
PCTK1 = PCTK1 (Homo sapiens, UniProt Q00536)
ERK4 = ERK4 (Homo sapiens, UniProt P31152)
PLK2 = PLK2 (Homo sapiens, UniProt Q9NYY3)
PRKX = PRKX (Homo sapiens, UniProt P51817)
CAMK1 = CAMK1 (Homo sapiens, UniProt Q14012)
MKK7 = MKK7 (Homo sapiens, UniProt O14733)
MAP3K4 = MAP3K4 (Homo sapiens, UniProt Q9Y6R4)
PLK3 = PLK3 (Homo sapiens, UniProt Q9H4B4)
CSK = CSK (Homo sapiens, UniProt P41240)
OSR1 = OSR1 (Homo sapiens, UniProt O95747)
WNK3 = WNK3 (Homo sapiens, UniProt Q9BYP7)
ERK3 = ERK3 (Homo sapiens, UniProt Q16659)
DSTYK = DSTYK (Homo sapiens, UniProt Q6XUX3)
FRK = FRK (Homo sapiens, UniProt P42685)
RIOK2 = RIOK2 (Homo sapiens, UniProt Q9BVS4)
SNARK = SNARK (Homo sapiens, UniProt Q9H093)
FLT3(R834Q) = FLT3(R834Q) (Homo sapiens, UniProt P36888, R834Q)
RET(V804M) = RET(V804M) (Homo sapiens, UniProt P07949, V804M)
FLT3(ITD) = FLT3(ITD) (Homo sapiens, UniProt P36888)

BRK, sequence (Q13882 whole entry): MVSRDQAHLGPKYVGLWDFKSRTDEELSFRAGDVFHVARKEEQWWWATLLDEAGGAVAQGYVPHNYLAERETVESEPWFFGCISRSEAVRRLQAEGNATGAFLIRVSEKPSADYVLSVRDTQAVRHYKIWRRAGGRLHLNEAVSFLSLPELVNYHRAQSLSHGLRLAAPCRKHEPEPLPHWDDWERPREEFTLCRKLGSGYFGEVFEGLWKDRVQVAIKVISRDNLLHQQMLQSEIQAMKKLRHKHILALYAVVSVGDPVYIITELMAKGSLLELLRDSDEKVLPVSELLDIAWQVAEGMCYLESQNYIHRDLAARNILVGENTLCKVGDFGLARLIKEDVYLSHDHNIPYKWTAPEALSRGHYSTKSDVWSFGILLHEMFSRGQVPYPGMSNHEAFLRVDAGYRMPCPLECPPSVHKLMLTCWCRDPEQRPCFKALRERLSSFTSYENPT
PCTK1, sequence (Q00536 whole entry): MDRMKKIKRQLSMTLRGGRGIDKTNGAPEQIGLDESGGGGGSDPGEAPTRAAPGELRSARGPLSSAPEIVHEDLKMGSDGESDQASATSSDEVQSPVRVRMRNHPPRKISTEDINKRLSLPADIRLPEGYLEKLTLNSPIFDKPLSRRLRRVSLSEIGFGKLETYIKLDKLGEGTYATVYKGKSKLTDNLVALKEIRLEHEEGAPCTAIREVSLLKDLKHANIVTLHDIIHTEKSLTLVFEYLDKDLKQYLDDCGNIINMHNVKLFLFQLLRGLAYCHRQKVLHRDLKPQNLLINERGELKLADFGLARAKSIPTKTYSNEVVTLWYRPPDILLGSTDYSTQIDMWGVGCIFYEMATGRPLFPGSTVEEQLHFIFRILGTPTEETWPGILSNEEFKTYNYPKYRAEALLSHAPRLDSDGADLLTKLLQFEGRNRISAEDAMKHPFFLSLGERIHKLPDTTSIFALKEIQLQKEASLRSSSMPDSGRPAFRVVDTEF
AXL, sequence (P30530 whole entry): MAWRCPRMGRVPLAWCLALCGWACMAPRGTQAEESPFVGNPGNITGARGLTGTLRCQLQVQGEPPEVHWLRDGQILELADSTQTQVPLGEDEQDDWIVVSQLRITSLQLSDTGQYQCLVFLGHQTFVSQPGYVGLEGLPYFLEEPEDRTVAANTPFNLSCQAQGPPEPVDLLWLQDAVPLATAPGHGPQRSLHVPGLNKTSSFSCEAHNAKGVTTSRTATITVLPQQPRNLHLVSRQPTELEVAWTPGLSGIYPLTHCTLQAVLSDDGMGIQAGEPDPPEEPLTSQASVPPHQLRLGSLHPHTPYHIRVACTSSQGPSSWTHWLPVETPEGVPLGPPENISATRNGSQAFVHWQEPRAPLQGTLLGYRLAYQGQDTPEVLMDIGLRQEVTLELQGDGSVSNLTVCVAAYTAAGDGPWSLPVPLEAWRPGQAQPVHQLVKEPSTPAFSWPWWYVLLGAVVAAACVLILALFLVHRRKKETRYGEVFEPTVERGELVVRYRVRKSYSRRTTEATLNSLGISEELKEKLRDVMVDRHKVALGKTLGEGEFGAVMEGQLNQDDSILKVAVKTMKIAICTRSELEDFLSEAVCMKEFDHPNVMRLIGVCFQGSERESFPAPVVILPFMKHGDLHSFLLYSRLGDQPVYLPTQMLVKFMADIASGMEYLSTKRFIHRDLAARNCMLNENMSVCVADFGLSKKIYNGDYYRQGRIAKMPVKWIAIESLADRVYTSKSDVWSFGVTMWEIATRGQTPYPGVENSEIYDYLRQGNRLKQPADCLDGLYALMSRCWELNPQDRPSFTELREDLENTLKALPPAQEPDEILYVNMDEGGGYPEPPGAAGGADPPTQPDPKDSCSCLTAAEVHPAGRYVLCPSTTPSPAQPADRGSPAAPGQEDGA
SGK2, sequence (Q9HBY8 whole entry): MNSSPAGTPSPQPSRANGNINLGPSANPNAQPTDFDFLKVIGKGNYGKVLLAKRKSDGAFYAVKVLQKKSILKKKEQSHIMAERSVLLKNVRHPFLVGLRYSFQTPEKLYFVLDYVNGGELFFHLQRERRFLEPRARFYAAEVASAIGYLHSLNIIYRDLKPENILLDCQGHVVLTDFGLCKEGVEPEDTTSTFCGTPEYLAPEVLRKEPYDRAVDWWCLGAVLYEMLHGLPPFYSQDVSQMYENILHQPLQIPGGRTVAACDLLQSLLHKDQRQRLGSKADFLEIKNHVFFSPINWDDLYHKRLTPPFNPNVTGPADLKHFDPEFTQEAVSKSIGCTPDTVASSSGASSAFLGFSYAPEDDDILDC
PLK2, sequence (Q9NYY3 whole entry): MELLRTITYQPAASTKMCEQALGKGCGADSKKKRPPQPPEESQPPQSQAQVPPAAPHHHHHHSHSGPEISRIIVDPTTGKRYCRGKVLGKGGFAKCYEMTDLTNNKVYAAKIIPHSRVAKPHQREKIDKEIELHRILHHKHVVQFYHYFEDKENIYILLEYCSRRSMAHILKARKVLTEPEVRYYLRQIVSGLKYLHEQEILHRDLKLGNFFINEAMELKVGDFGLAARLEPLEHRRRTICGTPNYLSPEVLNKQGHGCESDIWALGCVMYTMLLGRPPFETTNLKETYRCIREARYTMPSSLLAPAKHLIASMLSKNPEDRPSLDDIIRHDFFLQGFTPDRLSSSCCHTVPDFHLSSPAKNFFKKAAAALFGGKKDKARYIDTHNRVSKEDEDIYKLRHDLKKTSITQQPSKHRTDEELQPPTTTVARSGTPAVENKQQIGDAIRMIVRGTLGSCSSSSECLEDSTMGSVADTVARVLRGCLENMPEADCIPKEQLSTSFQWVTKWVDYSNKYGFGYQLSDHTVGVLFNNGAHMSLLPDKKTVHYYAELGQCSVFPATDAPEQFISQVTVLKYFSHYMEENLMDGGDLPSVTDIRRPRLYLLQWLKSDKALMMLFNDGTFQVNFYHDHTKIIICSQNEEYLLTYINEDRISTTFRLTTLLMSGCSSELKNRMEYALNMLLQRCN
DSTYK, sequence (Q6XUX3 whole entry): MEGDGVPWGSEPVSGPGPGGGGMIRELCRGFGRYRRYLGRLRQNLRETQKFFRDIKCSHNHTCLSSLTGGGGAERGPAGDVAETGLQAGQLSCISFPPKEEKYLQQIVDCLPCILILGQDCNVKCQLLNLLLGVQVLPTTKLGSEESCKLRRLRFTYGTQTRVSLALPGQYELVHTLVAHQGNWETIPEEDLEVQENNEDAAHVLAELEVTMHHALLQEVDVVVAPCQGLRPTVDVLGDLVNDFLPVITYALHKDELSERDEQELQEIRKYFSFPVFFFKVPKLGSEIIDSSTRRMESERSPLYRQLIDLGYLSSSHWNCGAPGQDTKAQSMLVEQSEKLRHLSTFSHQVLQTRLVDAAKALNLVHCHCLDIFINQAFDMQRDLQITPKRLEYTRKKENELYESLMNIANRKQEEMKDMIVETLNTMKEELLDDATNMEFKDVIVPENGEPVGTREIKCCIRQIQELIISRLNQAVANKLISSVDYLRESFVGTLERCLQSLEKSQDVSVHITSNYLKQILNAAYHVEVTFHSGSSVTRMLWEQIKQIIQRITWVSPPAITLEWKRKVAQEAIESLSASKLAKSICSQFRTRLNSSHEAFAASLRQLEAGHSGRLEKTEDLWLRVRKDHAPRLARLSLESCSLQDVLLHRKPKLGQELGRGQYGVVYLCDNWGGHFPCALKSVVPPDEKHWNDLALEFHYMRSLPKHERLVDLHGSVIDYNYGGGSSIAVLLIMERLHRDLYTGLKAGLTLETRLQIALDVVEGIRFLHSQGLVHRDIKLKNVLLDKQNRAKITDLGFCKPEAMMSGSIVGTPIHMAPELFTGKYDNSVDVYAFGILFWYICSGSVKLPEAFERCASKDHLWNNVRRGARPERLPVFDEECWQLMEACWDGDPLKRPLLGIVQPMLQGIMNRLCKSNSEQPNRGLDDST
WNK4, sequence (Q96J92 whole entry): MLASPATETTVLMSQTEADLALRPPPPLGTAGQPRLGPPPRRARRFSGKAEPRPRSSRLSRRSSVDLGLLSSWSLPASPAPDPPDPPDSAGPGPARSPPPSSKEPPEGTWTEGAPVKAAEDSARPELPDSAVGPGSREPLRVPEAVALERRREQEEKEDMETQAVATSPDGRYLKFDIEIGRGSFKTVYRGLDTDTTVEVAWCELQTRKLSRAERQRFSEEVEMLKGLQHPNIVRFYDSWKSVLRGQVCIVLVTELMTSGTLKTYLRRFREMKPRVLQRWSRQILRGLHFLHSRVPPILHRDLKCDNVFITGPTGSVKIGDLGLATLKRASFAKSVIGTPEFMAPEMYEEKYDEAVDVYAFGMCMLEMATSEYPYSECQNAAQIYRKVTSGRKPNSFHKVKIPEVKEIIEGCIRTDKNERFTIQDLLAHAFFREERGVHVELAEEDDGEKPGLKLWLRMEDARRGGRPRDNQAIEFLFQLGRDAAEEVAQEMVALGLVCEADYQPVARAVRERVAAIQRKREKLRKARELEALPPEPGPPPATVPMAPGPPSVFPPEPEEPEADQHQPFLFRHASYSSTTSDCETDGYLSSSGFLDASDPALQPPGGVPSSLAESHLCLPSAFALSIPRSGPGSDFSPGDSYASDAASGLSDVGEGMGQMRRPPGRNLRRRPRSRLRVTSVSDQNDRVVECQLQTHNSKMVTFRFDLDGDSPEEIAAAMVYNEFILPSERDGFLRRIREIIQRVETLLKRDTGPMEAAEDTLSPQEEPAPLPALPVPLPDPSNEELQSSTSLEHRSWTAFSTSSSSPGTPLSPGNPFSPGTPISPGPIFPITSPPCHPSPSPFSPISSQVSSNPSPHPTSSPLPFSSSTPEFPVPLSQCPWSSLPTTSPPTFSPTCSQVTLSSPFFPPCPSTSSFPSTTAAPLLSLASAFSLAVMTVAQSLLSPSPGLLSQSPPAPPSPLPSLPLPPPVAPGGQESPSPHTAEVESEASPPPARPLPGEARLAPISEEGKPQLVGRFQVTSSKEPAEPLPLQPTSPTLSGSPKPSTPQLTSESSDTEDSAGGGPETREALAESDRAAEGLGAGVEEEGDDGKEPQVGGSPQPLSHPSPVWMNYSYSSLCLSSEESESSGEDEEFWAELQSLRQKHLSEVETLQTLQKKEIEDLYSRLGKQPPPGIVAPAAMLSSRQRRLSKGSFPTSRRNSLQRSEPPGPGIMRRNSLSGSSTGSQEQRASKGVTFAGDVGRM

CNc1ncc2cc(-c3ccc(-c4cccc(C)n4)cc3Cl)c(=O)n(C[C@H]3OC[C@H](N)CO3)c2n1 [compound 6, G-5555]
Percent Control (BRK): 100%
Percent Control (STK4): 90%
Percent Control (LATS2): 58%
Percent Control (RIOK3): 85%
Percent Control (SGK2): 100%
Percent Control (WNK4): 96%
Percent Control (FAK): 98%
Percent Control (ULK3): 90%
Percent Control (MST2): 64%
Percent Control (DCAMKL1): 80%
Percent Control (EIF2AK1): 97%
Percent Control (EPHA7): 100%
Percent Control (AXL): 100%
Percent Control (PCTK1): 100%
Percent Control (ERK4): 100%
Percent Control (PLK2): 75%
Percent Control (PRKX): 100%
Percent Control (CAMK1): 100%
Percent Control (MKK7): 86%
Percent Control (MAP3K4): 84%
Percent Control (PLK3): 86%
Percent Control (CSK): 100%
Percent Control (OSR1): 99%
Percent Control (WNK3): 100%
Percent Control (ERK3): 100%
Percent Control (DSTYK): 90%
Percent Control (FRK): 100%
Percent Control (RIOK2): 100%
Percent Control (SNARK): 19%
Percent Control (FLT3(R834Q)): 96%
Percent Control (RET(V804M)): 86%
Percent Control (FLT3(ITD)): 100%
